Reference: ChEMBL document CHEMBL5303573, “Mapping human microbiome drug metabolism by gut bacteria and their genes” (Nature, 2019)

How the values were obtained:
[1] = The drug is tested on Ruminococcus torques strain: ATCC27756 for biotransformation. The drug concentrations were measured before and after a 12-h incubation by liquid-chromatography-coupled mass spectrometry (LC–MS); type: ADME; design: dose 2 uM, timepoint 0 vs 12 hours; conditions: 2 µM
[2] = The drug is tested on Bacteroides sp. WH2 strain: WH2 for biotransformation. The drug concentrations were measured before and after a 12-h incubation by liquid-chromatography-coupled mass spectrometry (LC–MS); conditions: bacteroides sp. wh2, 12 h, 2 µM
[3] = The drug is tested on Enterococcus faecalis strain: V583 for biotransformation. The drug concentrations were measured before and after a 12-h incubation by liquid-chromatography-coupled mass spectrometry (LC–MS); conditions: 2 µM
[4] = The drug is tested on Ruminococcus gnavus strain: ATCC29149 for biotransformation. The drug concentrations were measured before and after a 12-h incubation by liquid-chromatography-coupled mass spectrometry (LC–MS); conditions: mediterraneibacter gnavus, 2 µM
[5] = bifidobacterium adolescentis, 12 h, 2 µM
[6] = The drug is tested on Bacteroides coprophilus strain: DSM18228 for biotransformation. The drug concentrations were measured before and after a 12-h incubation by liquid-chromatography-coupled mass spectrometry (LC–MS); conditions: 2 µM
[7] = The drug is tested on Enterobacter cancerogenus strain: ATCC35316 for biotransformation. The drug concentrations were measured before and after a 12-h incubation by liquid-chromatography-coupled mass spectrometry (LC–MS); conditions: 2 µM
[8] = The drug is tested on Bacteroides dorei strain: DSM17855 for biotransformation. The drug concentrations were measured before and after a 12-h incubation by liquid-chromatography-coupled mass spectrometry (LC–MS); conditions: phocaeicola dorei, 2 µM
[9] = The drug is tested on Coprococcus comes strain: ATCC27758 for biotransformation. The drug concentrations were measured before and after a 12-h incubation by liquid-chromatography-coupled mass spectrometry (LC–MS); type: ADME; design: dose 2 uM, timepoint 0 vs 12 hours; conditions: 2 µM
[10] = The drug is tested on Ruminococcus lactaris strain: ATCC29176 for biotransformation. The drug concentrations were measured before and after a 12-h incubation by liquid-chromatography-coupled mass spectrometry (LC–MS); conditions: 2 µM
[11] = bacteroides eggerthii, 12 h, 2 µM
[12] = The drug is tested on Anaerococcus hydrogenalis strain: DSM7454 for biotransformation. The drug concentrations were measured before and after a 12-h incubation by liquid-chromatography-coupled mass spectrometry (LC–MS); conditions: 2 µM
[13] = anaerostipes sp., 12 h, 2 µM
[14] = limosilactobacillus reuteri cf48-3a, 12 h, 2 µM
[15] = The drug is tested on Anaerotruncus colihominis strain: DSM17241 for biotransformation. The drug concentrations were measured before and after a 12-h incubation by liquid-chromatography-coupled mass spectrometry (LC–MS); conditions: 2 µM
[16] = The drug is tested on Clostridium sp. strain: fecal isolate for biotransformation. The drug concentrations were measured before and after a 12-h incubation by liquid-chromatography-coupled mass spectrometry (LC–MS); conditions: 2 µM
[17] = The drug is tested on Providencia stuartii strain: ATCC25827 for biotransformation. The drug concentrations were measured before and after a 12-h incubation by liquid-chromatography-coupled mass spectrometry (LC–MS); conditions: 2 µM
[18] = enterocloster bolteae, 12 h, 2 µM
[19] = The drug is tested on Bifidobacterium longum subsp. Infantis strain: CCUG52486 for biotransformation. The drug concentrations were measured before and after a 12-h incubation by liquid-chromatography-coupled mass spectrometry (LC–MS); conditions: 2 µM
[20] = bacteroides thetaiotaomicron, 12 h, 2 µM

Row | Bacterial Biotransformation [1] | Bacterial Biotransformation [2] | Bacterial Biotransformation [3] | Bacterial Biotransformation [4] | Bacterial Biotransformation [5] | Bacterial Biotransformation [6] | Bacterial Biotransformation [7] | Bacterial Biotransformation [8] | Bacterial Biotransformation [9] | Bacterial Biotransformation [10] | Bacterial Biotransformation [12] | Bacterial Biotransformation [13] | SMILES | Bacterial Biotransformation [11] | Bacterial Biotransformation [14] | Bacterial Biotransformation [15] | Bacterial Biotransformation [16] | Bacterial Biotransformation [17] | Bacterial Biotransformation [18] | Bacterial Biotransformation [19] | Bacterial Biotransformation [20]
1 | Compound NOT metabolized | Compound NOT metabolized | Compound NOT metabolized | Compound NOT metabolized | Compound NOT metabolized | Compound NOT metabolized | Compound NOT metabolized | Compound metabolized | Compound NOT metabolized | Compound NOT metabolized | Compound NOT metabolized | Compound NOT metabolized | C[C@@H]1C[C@H]2[C@@H]3CCC4=CC(=O)C=C[C@]4(C)[C@@]3(F)[C@@H](O)C[C@]2(C)[C@@]1(O)C(=O)CO [DEXAMETHASONE] | Compound NOT metabolized | – | – | – | – | – | – | –
2 | Compound NOT metabolized | Compound NOT metabolized | Compound NOT metabolized | Compound NOT metabolized | Compound NOT metabolized | Compound NOT metabolized | Compound NOT metabolized | Compound metabolized | Compound NOT metabolized | Compound NOT metabolized | Compound NOT metabolized | Compound NOT metabolized | CCCCc1nc(Cl)c(CO)n1Cc1ccc(-c2ccccc2-c2nn[nH]n2)cc1 [LOSARTAN] | – | Compound NOT metabolized | Compound NOT metabolized | – | Compound NOT metabolized | Compound NOT metabolized | Compound NOT metabolized | –
3 | Compound NOT metabolized | Compound NOT metabolized | Compound NOT metabolized | Compound NOT metabolized | Compound NOT metabolized | Compound NOT metabolized | Compound NOT metabolized | – | Compound NOT metabolized | – | Compound NOT metabolized | Compound NOT metabolized | CC(=O)O[C@H]1C(=O)[C@@]2(C)[C@H]([C@H](OC(=O)c3ccccc3)[C@]3(O)C[C@H](OC(=O)[C@H](O)[C@@H](NC(=O)c4ccccc4)c4ccccc4)C(C)=C1C3(C)C)[C@]1(OC(C)=O)CO[C@@H]1C[C@@H]2O [PACLITAXEL] | Compound NOT metabolized | Compound NOT metabolized | Compound NOT metabolized | – | Compound NOT metabolized | Compound NOT metabolized | Compound NOT metabolized | Compound NOT metabolized
4 | Compound NOT metabolized | Compound NOT metabolized | Compound NOT metabolized | Compound NOT metabolized | Compound NOT metabolized | Compound NOT metabolized | – | Compound metabolized | Compound NOT metabolized | Compound NOT metabolized | Compound NOT metabolized | Compound NOT metabolized | CCC(=O)NCC[C@@H]1CCc2ccc3c(c21)CCO3 [RAMELTEON] | Compound metabolized | Compound NOT metabolized | Compound NOT metabolized | Compound NOT metabolized | – | Compound NOT metabolized | Compound NOT metabolized | –
5 | Compound NOT metabolized | Compound NOT metabolized | Compound NOT metabolized | Compound NOT metabolized | Compound NOT metabolized | Compound NOT metabolized | – | Compound NOT metabolized | – | Compound NOT metabolized | Compound NOT metabolized | Compound NOT metabolized | Cc1ccc(/C(=C\CN2CCCC2)c2ccccn2)cc1 [TRIPROLIDINE] | Compound NOT metabolized | Compound NOT metabolized | Compound NOT metabolized | Compound NOT metabolized | Compound NOT metabolized | Compound NOT metabolized | – | Compound NOT metabolized

Row | SMILES | Bacterial Biotransformation [1] | Bacterial Biotransformation [2] | Bacterial Biotransformation [3] | Bacterial Biotransformation [4] | Bacterial Biotransformation [5] | Bacterial Biotransformation [6] | Bacterial Biotransformation [7] | Bacterial Biotransformation [8] | Bacterial Biotransformation [9] | Bacterial Biotransformation [10] | Bacterial Biotransformation [12] | Bacterial Biotransformation [13] | Bacterial Biotransformation [11] | Bacterial Biotransformation [14] | Bacterial Biotransformation [15] | Bacterial Biotransformation [16] | Bacterial Biotransformation [17] | Bacterial Biotransformation [18] | Bacterial Biotransformation [19] | Bacterial Biotransformation [20]
6 | CN(C)C(=O)C(CCN1CCC(O)(c2ccc(Cl)cc2)CC1)(c1ccccc1)c1ccccc1 [LOPERAMIDE] | Compound NOT metabolized | Compound NOT metabolized | Compound NOT metabolized | Compound NOT metabolized | Compound NOT metabolized | Compound metabolized | – | Compound metabolized | – | Compound NOT metabolized | Compound NOT metabolized | Compound NOT metabolized | Compound metabolized | Compound NOT metabolized | Compound NOT metabolized | Compound metabolized | Compound NOT metabolized | Compound NOT metabolized | – | –
7 | CC(C)(C)NC[C@H](O)COc1ccccc1C1CCCC1.CC(C)(C)NC[C@H](O)COc1ccccc1C1CCCC1.O=S(=O)(O)O [PENBUTOLOL SULFATE] | Compound NOT metabolized | Compound NOT metabolized | Compound NOT metabolized | Compound NOT metabolized | Compound NOT metabolized | – | – | – | Compound NOT metabolized | Compound NOT metabolized | Compound NOT metabolized | Compound NOT metabolized | Compound NOT metabolized | Compound NOT metabolized | Compound NOT metabolized | Compound metabolized | Compound NOT metabolized | Compound NOT metabolized | Compound NOT metabolized | Compound NOT metabolized
8 | C=C[C@H]1CN2CC[C@H]1C[C@H]2[C@H](O)c1ccnc2ccc(OC)cc12.C=C[C@H]1CN2CC[C@H]1C[C@H]2[C@H](O)c1ccnc2ccc(OC)cc12.O.O.O=S(=O)(O)O [QUININE SULFATE] | Compound NOT metabolized | Compound NOT metabolized | Compound NOT metabolized | Compound NOT metabolized | Compound NOT metabolized | Compound NOT metabolized | – | – | Compound NOT metabolized | – | Compound NOT metabolized | Compound NOT metabolized | Compound NOT metabolized | Compound NOT metabolized | Compound NOT metabolized | – | Compound NOT metabolized | Compound NOT metabolized | Compound NOT metabolized | Compound NOT metabolized
9 | O=C(O[C@H]1C[C@H]2CC[C@@H](C1)[N+]21CCCC1)C(O)(c1ccccc1)c1ccccc1.[Cl-] [TROSPIUM CHLORIDE] | Compound NOT metabolized | Compound NOT metabolized | Compound NOT metabolized | Compound NOT metabolized | Compound NOT metabolized | – | Compound NOT metabolized | Compound NOT metabolized | Compound NOT metabolized | Compound NOT metabolized | Compound NOT metabolized | Compound NOT metabolized | Compound NOT metabolized | Compound NOT metabolized | Compound NOT metabolized | – | Compound NOT metabolized | Compound NOT metabolized | Compound NOT metabolized | Compound NOT metabolized
